Laboratory results from patent US9284321B2, “Piperazino[1,2-a]indol-1-ones and [1,4]diazepino[1,2-a]indol-1-one” (Hoffmann-La Roche Inc., priority 2012, dated 2016).

Columns and labels:
[1] = test system: human embryonic stem cell derived neural stem cells (NSCs); assay: Neural Stem Cell Proliferation Assay (neurogenesis assay, ATP levels by CellTiterGlo); format: cell-based; conditions: 96 h, compound concentration at which 150% activity of control (100%) is reached, NSC proliferation by ATP level after 4 days incubation, dose response 8 μM to 8 nM
Procedure, shortened: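 Human ESC-derived NSCs (dual SMAD inhibition) seeded 4 h before compounds, 11-point 2-fold series 8 μM–8 nM; 4 days at 37 °C, 5% CO2. ATP by CellTiterGlo luminescence as cell-number proxy, response as % of media control (0.25% DMSO); EC150 = concentration giving 150% of control.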

| melting point | Structure (SMILES) | EC (150% of control) [1] |
| --- | --- | --- |
| 270 °C | Cc1c2n(c3c(-c4ccnc(Cl)c4)cc(Cl)cc13)CCNC2=O [Example 119, 8-Chloro-6-(2-chloro-pyridin-4-yl)-10-methyl-3,4-dihydro-2H-pyrazino[1,2-a]indol-1-one] | 0.16 µM |
| 214 °C | Cc1c2n(c3c(-c4ccc(Cl)cc4Cl)cc(F)cc13)CCNC2=O [Example 120, 6-(2,4-Dichloro-phenyl)-8-fluoro-10-methyl-3,4-dihydro-2H-pyrazino[1,2-a]indol-1-one] | 0.01 µM |
| 221 °C | Cc1c2n(c3c(-c4ccc(Cl)cc4F)cc(F)cc13)CCNC2=O [Example 121, 6-(4-Chloro-2-fluoro-phenyl)-8-fluoro-10-methyl-3,4-dihydro-2H-pyrazino[1,2-a]indol-1-one] | 0.01 µM |
| 204 °C | Cc1c2n(c3c(-c4ccc(F)cc4F)cc(F)cc13)CCNC2=O [Example 122, 6-(2,4-Difluoro-phenyl)-8-fluoro-10-methyl-3,4-dihydro-2H-pyrazino[1,2-a]indol-1-one] | 0.013 µM |
| 206 °C | Cc1c2n(c3c(-c4ccc5c(c4)OCO5)cc(F)cc13)CCNC2=O [Example 123, 6-Benzo[1,3]dioxol-5-yl-8-fluoro-10-methyl-3,4-dihydro-2H-pyrazino[1,2-a]indol-1-one] | 0.031 µM |
| 295 °C | Cc1c2n(c3c(-c4ccc(C#N)cc4)cc(F)cc13)CCNC2=O [Example 124, 4-(8-Fluoro-10-methyl-1-oxo-1,2,3,4-tetrahydro-pyrazino[1,2-a]indol-6-yl)-benzonitrile] | 0.023 µM |
| 292 °C | Cc1c2n(c3c(-c4ccc(S(C)(=O)=O)cc4)cc(F)cc13)CCNC2=O [Example 125, 8-Fluoro-6-(4-methanesulfonyl-phenyl)-10-methyl-3,4-dihydro-2H-1-pyrazino[1,2-a]indol-1-one] | 0.015 µM |
| 309 °C | Cc1c2n(c3c(-c4ccc([N+](=O)[O-])cc4)cc(F)cc13)CCNC2=O [Example 126, 8-Fluoro-10-methyl-6-(4-nitro-phenyl)-3,4-dihydro-2H-pyrazino[1,2-a]indol-1-one] | 0.01 µM |
| 177 °C | Cc1c2n(c3c(-c4ccc(C(C)C)cc4)cc(F)cc13)CCNC2=O [Example 127, 8-Fluoro-6-(4-isopropyl-phenyl)-10-methyl-3,4-dihydro-2H-pyrazino[1,2-a]indol-1-one] | 0.025 µM |
| 182 °C | Cc1c2n(c3c(-c4cccc(Cl)c4)cc(F)cc13)CCNC2=O [Example 128, 6-(3-Chloro-phenyl)-8-fluoro-10-methyl-3,4-dihydro-2H-pyrazino[1,2-a]indol-1-one] | 0.22 µM |
| 251 °C | Cc1c2n(c3c(-c4ccc5c(c4)CCO5)cc(F)cc13)CCNC2=O [Example 129, 6-(2,3-Dihydro-benzofuran-5-yl)-8-fluoro-10-methyl-3,4-dihydro-2H-pyrazino[1,2-a]indol-1-one] | 0.022 µM |
| 220 °C | Cc1c2n(c3c(-c4ccc(CO)cc4)cc(F)cc13)CCNC2=O [Example 130, 8-Fluoro-6-(4-hydroxymethyl-phenyl)-10-methyl-3,4-dihydro-2H-pyrazino[1,2-a]indol-1-one] | 0.011 µM |
| 192 °C | Cc1c2n(c3c(-c4cccc(C#N)c4)cc(F)cc13)CCNC2=O [Example 131, 3-(8-Fluoro-10-methyl-1-oxo-1,2,3,4-tetrahydro-pyrazino[1,2-a]indol-6-yl)-benzonitrile] | 0.33 µM |
| 216 °C | Cc1c2n(c3c(-c4ccc(C(C)(C)C)cc4)cc(F)cc13)CCNC2=O [Example 132, 6-(4-tert-Butyl-phenyl)-8-fluoro-10-methyl-3,4-dihydro-2H-pyrazino[1,2-a]indol-1-one] | 0.046 µM |
